The values that follow are results of earlier work, collected in patent US10736931B2, “Pharmaceutical compositions comprising plant extracts and methods for reducing duration of a common cold using same” (Matrixx Initiatives, Inc., priority 2014, dated 2020).

This data set has as its target acetylcholine esterase (Homo sapiens, UniProt P22303). As to conditions: ceramides from L. operculata; Feitosa et al. 2011.

Chain of acetylcholine esterase (P22303 32-614): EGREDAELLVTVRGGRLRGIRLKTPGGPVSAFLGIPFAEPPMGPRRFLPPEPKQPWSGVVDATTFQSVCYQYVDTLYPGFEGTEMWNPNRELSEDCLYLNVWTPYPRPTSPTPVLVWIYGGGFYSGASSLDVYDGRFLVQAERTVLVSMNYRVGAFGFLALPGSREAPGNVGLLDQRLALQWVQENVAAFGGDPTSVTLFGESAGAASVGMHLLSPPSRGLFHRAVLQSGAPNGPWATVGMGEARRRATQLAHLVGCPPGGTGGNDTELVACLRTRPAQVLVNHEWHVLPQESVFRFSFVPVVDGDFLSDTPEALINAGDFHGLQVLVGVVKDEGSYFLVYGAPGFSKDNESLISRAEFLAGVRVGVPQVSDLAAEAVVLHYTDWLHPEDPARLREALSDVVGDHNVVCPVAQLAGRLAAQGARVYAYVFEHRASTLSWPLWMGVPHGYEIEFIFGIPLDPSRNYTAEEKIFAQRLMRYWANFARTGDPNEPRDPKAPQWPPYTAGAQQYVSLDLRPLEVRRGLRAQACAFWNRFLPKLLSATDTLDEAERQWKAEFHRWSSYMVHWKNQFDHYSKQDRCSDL

As to ceramides, the “acetylcholine esterase inhibitory effects” value was “high”.
